Data taken from US11000033B2, “Ketone or oxime compound, and herbicide” (NISSAN CHEMICAL CORPORATION, priority 2014, dated 2021).

Experiments:
Format in all cases: in vivo
[1] = tested on: Digitaria ciliaris; test: Test Example 4: herbicidal effect by soil treatment (symbol F); details: application herbicide amount 320 g/ha
Procedure, shortened: (§1)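 Seeds were sown in sterilized diluvial soil, covered with about 1.5 cm of soil, and the soil surface was sprayed with a water-diluted emulsion of the compound at a predetermined rate. Plants grew in a greenhouse at 25° C. to 30° C.; effects were scored visually 3 weeks after application.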

[2] = tested on: Alopecurus myosuroides; test: Test Example 4: herbicidal effect by soil treatment (symbol J); details: application herbicide amount 320 g/ha
Procedure, shortened: as §1

[3] = tested on: Echinochloa oryzacola Vasing.; test: Test Example 2: herbicidal activity, application during weed generation in submerged conditions (symbol A); details: Table 23; application herbicide amount 320 g/ha; grade 0-5 by criteria of Test Example 1
Procedure, shortened: (§2)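 Compound was applied as a water-diluted emulsion into the standing water of flooded pots (4 cm) once co-sown weeds reached one to two leaves. Greenhouse temperature was 25° C. to 30° C., soil was alluvial, and each species was rated visually after 3 weeks.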

[4] = tested on: Amaranthus retroflexus; test: Test Example 5: herbicidal effect by foliage application, plastic box (symbol N); details: 320 g/ha, 3 weeks after application
Procedure, shortened: (§3)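 Effect is rated 3 weeks after a foliar spray of water-diluted emulsion concentrate at a predetermined herbicide amount. Plants had grown 14 days in a 25° C. to 30° C. greenhouse from seed in sterilized diluvial soil.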

[5] = tested on: Galium spurium; test: Test Example 4: herbicidal effect by soil treatment (symbol Q); details: application herbicide amount 320 g/ha
Procedure, shortened: as §1

[6] = tested on: Monochoria vaginalis; test: Test Example 1: herbicidal activity, application before weed generation in submerged conditions (symbol C); details: application herbicide amount 320 g/ha
Procedure, shortened: (§4)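 Ratings (5: ≥90%, near complete withering; 4: 70–<90%; 3: 40–<70%; 2: 20–<40%; 1: 5–<20%; 0: ≤5%) were assigned 3 weeks after the diluted emulsion was applied to the water surface of freshly sown, submerged pots.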

[7] = tested on: Scirpus juncoides; test: Test Example 2: herbicidal activity, application during weed generation in submerged conditions (symbol B); details: Table 23; application herbicide amount 320 g/ha; grade 0-5 by criteria of Test Example 1
Procedure, shortened: as §2

[8] = tested on: rapeseed; test: Test Example 5: effect on crop by foliage application, plastic box (symbol g); details: 320 g/ha, 3 weeks after application
Procedure, shortened: (§5)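 Foliage-application test plants come from spot sowing in sterilized diluvial soil under a soil layer of about 1.5 cm, grown at 25° C. to 30° C. in a greenhouse.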

[9] = tested on: Chenopodium album; test: Test Example 4: herbicidal effect by soil treatment (symbol O); details: application herbicide amount 320 g/ha
Procedure, shortened: as §1

[10] = tested on: Abutilon theophrasti; test: Test Example 5: herbicidal effect by foliage application, plastic box (symbol M); details: 320 g/ha, 3 weeks after application
Procedure, shortened: as §3

[11] = tested on: Avena fatua; test: Test Example 4: herbicidal effect by soil treatment (symbol I); details: application herbicide amount 320 g/ha
Procedure, shortened: as §1

[12] = tested on: Abutilon theophrasti; test: Test Example 4: herbicidal effect by soil treatment (symbol M); details: application herbicide amount 320 g/ha
Procedure, shortened: as §1

[13] = tested on: rice; test: Test Example 4: effect on crop by soil treatment (symbol b); details: application herbicide amount 320 g/ha
Procedure, shortened: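 Crop seeds, among them rice, wheat, beet and rapeseed, were sown in sterilized diluvial soil and covered with about 1.5 cm of soil. Boxes were kept in a greenhouse at 25° C. to 30° C. for plant growth.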

[14] = tested on: Echinochloa oryzacola Vasing.; test: Test Example 1: herbicidal activity, application before weed generation in submerged conditions (symbol A); details: application herbicide amount 320 g/ha
Procedure, shortened: as §4

[15] = tested on: Monochoria vaginalis; test: Test Example 2: herbicidal activity, application during weed generation in submerged conditions (symbol C); details: Table 23; application herbicide amount 320 g/ha; grade 0-5 by criteria of Test Example 1
Procedure, shortened: as §2

[16] = tested on: Echinochloa crus-galli var. crus-galli; test: Test Example 5: herbicidal effect by foliage application, plastic box (symbol H); details: 320 g/ha, 3 weeks after application
Procedure, shortened: as §3

[17] = tested on: beet; test: Test Example 5: effect on crop by foliage application, plastic box (symbol f); details: 320 g/ha, 3 weeks after application
Procedure, shortened: as §5

CON=C(C)CC1CC(OC)=C(c2c(C)cc(C)cc2C)C1=O (stereo not drawn) [1-001, 2-mesityl-3-methoxy-5-{2-(methoxyimino)propyl}cyclopent-2-enone]
F (Digitaria ciliaris) herbicidal effect grade [1]: 0 (Herbicidal ratio of 5% or lower (almost no effect)) | J (Alopecurus myosuroides) herbicidal effect grade [2]: 0 (Herbicidal ratio of 5% or lower (almost no effect)) | Herbicidal effect grade, A: Echinochloa oryzacola Vasing. [3]: 0 (Herbicidal ratio of 5% or lower (almost no effect)) | N: Amaranthus retroflexus, herbicidal effect grade [4]: 0 (Herbicidal ratio of 5% or lower (almost no effect)) | Q (Galium spurium) herbicidal effect grade [5]: 0 (Herbicidal ratio of 5% or lower (almost no effect)) | Herbicidal effect grade, C: Monochoria vaginalis [6]: 0 (Herbicidal ratio of 5% or lower (almost no effect)) | Herbicidal effect grade, B: Scirpus juncoides [7]: 0 (Herbicidal ratio of 5% or lower (almost no effect)) | g: rapeseed, effect on crop grade [8]: 0 (Herbicidal ratio of 5% or lower (almost no effect)) | O (Chenopodium album) herbicidal effect grade [9]: 0 (Herbicidal ratio of 5% or lower (almost no effect)) | M: Abutilon theophrasti, herbicidal effect grade [10]: 0 (Herbicidal ratio of 5% or lower (almost no effect)) | I (Avena fatua) herbicidal effect grade [11]: 0 (Herbicidal ratio of 5% or lower (almost no effect)) | M (Abutilon theophrasti) herbicidal effect grade [12]: 0 (Herbicidal ratio of 5% or lower (almost no effect)) | b (directly sowed rice plant) effect on crop grade [13]: 0 (Herbicidal ratio of 5% or lower (almost no effect)) | Herbicidal effect grade, A: Echinochloa oryzacola Vasing. [14]: 0 (Herbicidal ratio of 5% or lower (almost no effect)) | Herbicidal effect grade, C: Monochoria vaginalis [15]: 0 (Herbicidal ratio of 5% or lower (almost no effect)) | H: Echinochloa crus-galli var. crus-galli, herbicidal effect grade [16]: 0 (Herbicidal ratio of 5% or lower (almost no effect)) | f: beet, effect on crop grade [17]: 0 (Herbicidal ratio of 5% or lower (almost no effect))

CON=C(C)CC1CC(O)=C(c2c(C)cc(C)cc2C)C1=O (stereo not drawn) [1-002, 3-hydroxy-2-mesityl-5-{2-(methoxyimino)propyl}cyclopent-2-enone]
F (Digitaria ciliaris) herbicidal effect grade [1]: 5 (Herbicidal ratio of 90% or more (almost completely withered)) | J (Alopecurus myosuroides) herbicidal effect grade [2]: 5 (Herbicidal ratio of 90% or more (almost completely withered)) | Herbicidal effect grade, A: Echinochloa oryzacola Vasing. [3]: 5 (Herbicidal ratio of 90% or more (almost completely withered)) | N: Amaranthus retroflexus, herbicidal effect grade [4]: 5 (Herbicidal ratio of 90% or more (almost completely withered)) | Q (Galium spurium) herbicidal effect grade [5]: 1 (Herbicidal ratio of 5% or higher and lower than 20%) | Herbicidal effect grade, C: Monochoria vaginalis [6]: 4 (Herbicidal ratio of 70% or higher and lower than 90%) | Herbicidal effect grade, B: Scirpus juncoides [7]: 3 (Herbicidal ratio of 40% or higher and lower than 70%) | g: rapeseed, effect on crop grade [8]: 5 (Herbicidal ratio of 90% or more (almost completely withered)) | O (Chenopodium album) herbicidal effect grade [9]: 5 (Herbicidal ratio of 90% or more (almost completely withered)) | M: Abutilon theophrasti, herbicidal effect grade [10]: 4 (Herbicidal ratio of 70% or higher and lower than 90%) | I (Avena fatua) herbicidal effect grade [11]: 5 (Herbicidal ratio of 90% or more (almost completely withered)) | M (Abutilon theophrasti) herbicidal effect grade [12]: 5 (Herbicidal ratio of 90% or more (almost completely withered)) | b (directly sowed rice plant) effect on crop grade [13]: 5 (Herbicidal ratio of 90% or more (almost completely withered)) | Herbicidal effect grade, A: Echinochloa oryzacola Vasing. [14]: 5 (Herbicidal ratio of 90% or more (almost completely withered)) | Herbicidal effect grade, C: Monochoria vaginalis [15]: 3 (Herbicidal ratio of 40% or higher and lower than 70%) | H: Echinochloa crus-galli var. crus-galli, herbicidal effect grade [16]: 5 (Herbicidal ratio of 90% or more (almost completely withered)) | f: beet, effect on crop grade [17]: 5 (Herbicidal ratio of 90% or more (almost completely withered))

CON=C(C)CC1CC(OC(=O)C(C)(C)OC(C)=O)=C(c2c(C)cc(C)cc2C)C1=O (stereo not drawn) [1-034]
F (Digitaria ciliaris) herbicidal effect grade [1]: 5 (Herbicidal ratio of 90% or more (almost completely withered)) | J (Alopecurus myosuroides) herbicidal effect grade [2]: 5 (Herbicidal ratio of 90% or more (almost completely withered)) | Herbicidal effect grade, A: Echinochloa oryzacola Vasing. [3]: 5 (Herbicidal ratio of 90% or more (almost completely withered)) | N: Amaranthus retroflexus, herbicidal effect grade [4]: 3 (Herbicidal ratio of 40% or higher and lower than 70%) | Q (Galium spurium) herbicidal effect grade [5]: 4 (Herbicidal ratio of 70% or higher and lower than 90%) | Herbicidal effect grade, C: Monochoria vaginalis [6]: 2 (Herbicidal ratio of 20% or higher and lower than 40%) | Herbicidal effect grade, B: Scirpus juncoides [7]: 3 (Herbicidal ratio of 40% or higher and lower than 70%) | g: rapeseed, effect on crop grade [8]: 5 (Herbicidal ratio of 90% or more (almost completely withered)) | O (Chenopodium album) herbicidal effect grade [9]: 5 (Herbicidal ratio of 90% or more (almost completely withered)) | M: Abutilon theophrasti, herbicidal effect grade [10]: 4 (Herbicidal ratio of 70% or higher and lower than 90%) | I (Avena fatua) herbicidal effect grade [11]: 5 (Herbicidal ratio of 90% or more (almost completely withered)) | M (Abutilon theophrasti) herbicidal effect grade [12]: 5 (Herbicidal ratio of 90% or more (almost completely withered)) | b (directly sowed rice plant) effect on crop grade [13]: 5 (Herbicidal ratio of 90% or more (almost completely withered)) | Herbicidal effect grade, A: Echinochloa oryzacola Vasing. [14]: 5 (Herbicidal ratio of 90% or more (almost completely withered)) | Herbicidal effect grade, C: Monochoria vaginalis [15]: 3 (Herbicidal ratio of 40% or higher and lower than 70%) | H: Echinochloa crus-galli var. crus-galli, herbicidal effect grade [16]: 5 (Herbicidal ratio of 90% or more (almost completely withered)) | f: beet, effect on crop grade [17]: 4 (Herbicidal ratio of 70% or higher and lower than 90%)

CON=C(CC1CC(O)=C(c2c(C)cc(C)cc2C)C1=O)C(C)C (stereo not drawn) [1-048]
F (Digitaria ciliaris) herbicidal effect grade [1]: 5 (Herbicidal ratio of 90% or more (almost completely withered)) | J (Alopecurus myosuroides) herbicidal effect grade [2]: 5 (Herbicidal ratio of 90% or more (almost completely withered)) | Herbicidal effect grade, A: Echinochloa oryzacola Vasing. [3]: 5 (Herbicidal ratio of 90% or more (almost completely withered)) | N: Amaranthus retroflexus, herbicidal effect grade [4]: 1 (Herbicidal ratio of 5% or higher and lower than 20%) | Q (Galium spurium) herbicidal effect grade [5]: 0 (Herbicidal ratio of 5% or lower (almost no effect)) | Herbicidal effect grade, C: Monochoria vaginalis [6]: 1 (Herbicidal ratio of 5% or higher and lower than 20%) | Herbicidal effect grade, B: Scirpus juncoides [7]: 4 (Herbicidal ratio of 70% or higher and lower than 90%) | g: rapeseed, effect on crop grade [8]: 3 (Herbicidal ratio of 40% or higher and lower than 70%) | O (Chenopodium album) herbicidal effect grade [9]: 0 (Herbicidal ratio of 5% or lower (almost no effect)) | M: Abutilon theophrasti, herbicidal effect grade [10]: 3 (Herbicidal ratio of 40% or higher and lower than 70%) | I (Avena fatua) herbicidal effect grade [11]: 1 (Herbicidal ratio of 5% or higher and lower than 20%) | M (Abutilon theophrasti) herbicidal effect grade [12]: 3 (Herbicidal ratio of 40% or higher and lower than 70%) | b (directly sowed rice plant) effect on crop grade [13]: 5 (Herbicidal ratio of 90% or more (almost completely withered)) | Herbicidal effect grade, A: Echinochloa oryzacola Vasing. [14]: 5 (Herbicidal ratio of 90% or more (almost completely withered)) | Herbicidal effect grade, C: Monochoria vaginalis [15]: 2 (Herbicidal ratio of 20% or higher and lower than 40%) | H: Echinochloa crus-galli var. crus-galli, herbicidal effect grade [16]: 5 (Herbicidal ratio of 90% or more (almost completely withered)) | f: beet, effect on crop grade [17]: 1 (Herbicidal ratio of 5% or higher and lower than 20%)

CON=C(CC1CC(O)=C(c2c(C)cc(-n3cc(Cl)cn3)cc2C)C1=O)C(C)C (stereo not drawn) [9-004]
Herbicidal effect grade, F: Digitaria ciliaris [1]: 5 (Herbicidal ratio of 90% or more (almost completely withered)) | Herbicidal effect grade, J: Alopecurus myosuroides [2]: 5 (Herbicidal ratio of 90% or more (almost completely withered)) | Herbicidal effect grade, A: Echinochloa oryzacola Vasing. [3]: 5 (Herbicidal ratio of 90% or more (almost completely withered)) | Herbicidal effect grade, Q: Galium spurium [5]: 0 (Herbicidal ratio of 5% or lower (almost no effect)) | Herbicidal effect grade, C: Monochoria vaginalis [6]: 0 (Herbicidal ratio of 5% or lower (almost no effect)) | Herbicidal effect grade, B: Scirpus juncoides [7]: 2 (Herbicidal ratio of 20% or higher and lower than 40%) | g: rapeseed, effect on crop grade [8]: 3 (Herbicidal ratio of 40% or higher and lower than 70%) | Herbicidal effect grade, O: Chenopodium album [9]: 0 (Herbicidal ratio of 5% or lower (almost no effect)) | M: Abutilon theophrasti, herbicidal effect grade [10]: 0 (Herbicidal ratio of 5% or lower (almost no effect)) | Herbicidal effect grade, I: Avena fatua [11]: 2 (Herbicidal ratio of 20% or higher and lower than 40%) | Herbicidal effect grade, M: Abutilon theophrasti [12]: 0 (Herbicidal ratio of 5% or lower (almost no effect)) | Effect on crop grade, b: directly sowed rice plant [13]: 0 (Herbicidal ratio of 5% or lower (almost no effect)) | Herbicidal effect grade, A: Echinochloa oryzacola Vasing. [14]: 5 (Herbicidal ratio of 90% or more (almost completely withered)) | Herbicidal effect grade, C: Monochoria vaginalis [15]: 0 (Herbicidal ratio of 5% or lower (almost no effect)) | H: Echinochloa crus-galli var. crus-galli, herbicidal effect grade [16]: 5 (Herbicidal ratio of 90% or more (almost completely withered)) | f: beet, effect on crop grade [17]: 0 (Herbicidal ratio of 5% or lower (almost no effect))
